This note sets out measurements from patent US20140221286A1, “SODIUM CHANNEL BLOCKERS REDUCE GLUCAGON SECRETION” (Gilead Sciences, Inc., priority 2011, published 2014).

Test [1] deals with α-TC1 clone 9 cells. The class given is cell-based. The note with it: for Glucagon Secretion % Inhibition: veratridine-induced (30 μM for 1 hour), at a given concentration (not given). How it is done: (§1) Voltage-dependent block (VDB) of […] was determined by whole-cell voltage-clamp recordings of sodium current using a QPatch 16× automated electrophysiological system in HEK 293 cells overexpressing Nav 1.3 and Nav 1.7 sodium channels, respectively. VDB of peak current was measured using an 8 s conditioning prepulse (to -55 mV for NaV1.3 and to −60 mV for […]) followed by a test pulse (0 mV, 20 ms). Currents are normalized to the peak current recorded in the absence of drug and expressed as percent inhibition. […] Glucagon secretion in the cells was induced by the treatment with veratridine at 30 μM for 1 hour in Krebs-Ringer buffer containing 0.1% BSA. Percent inhibition of glucagon secretion by Na channel blockers was calculated from the reduction of veratridine-induced glucagon secretion in the absence of drug.
Cells were seeded at 0.4×10^5/well in 96-well plates and allowed to recover for 1 day. The media was then changed to serum-free DMEM and incubated overnight. Cells were then treated with sodium-channel blockers in the presence of veratridine (15 μM) in Krebs-Ringer buffer containing 0.1% BSA and 3 mM glucose for 1 h. Supernatants were collected and stored at −80° C. until analysis. Glucagon levels were measured by an ELISA kit.

Test [2] deals with T1, hNaV1.3 (Homo sapiens, UniProt Q9NY46).
T1 construct: (Vanderbilt University, Nashville, Tenn.)
Kind of test: Voltage-dependent block (VDB) of hNaV1.3, QPatch whole-cell voltage-clamp in HEK-293 cells. It is filed as cell-based. To be noted: 8 s prepulse to -55 mV; at a given concentration (not given). Here is the method: as §1
(Vanderbilt University, Nashville, Tenn.). The cells were continuously maintained in a humidified, 5% CO2 atmosphere at 37° C. in DMEM high glucose growth medium supplemented with 10% FBS, 2 mM L-glutamine, 100 U/mL penicillin, 100 μg/mL streptomycin, 1 mg/mL G418 and 3 μg/mL puromycin.
(§2) Whole-cell voltage-clamp recordings were used to measure the activity of test compounds against hNaV1.3 and hNaV1.7. Sodium currents were recorded at room temperature using a QPatch 16× automated electrophysiological system (Sophion Bioscience, Copenhagen, Denmark). Cells were washed with PBS and then incubated with Detachin for 2 minutes at room temperature. Cells were then resuspended in growth media, pelleted by centrifugation and resuspended in CHO-S-SFM II serum free media supplemented with 100 U/mL penicillin, 100 μg/mL streptomycin and 10 mM HEPES. The cells were allowed to recover for 30 min at room temperature with constant stirring and then loaded into the QPatch cell holder.
(§3) The cells were loaded into primed single hole (2 MΩ) large QPlates and the whole-cell configuration was established using the default protocol. Cells were allowed to stabilize for 10 min after establishment of the whole-cell configuration before current was measured. […] All currents are low-pass Bessel filtered at 5 kHz and digitized at 50 kHz.
(§4) Specific voltage-clamp protocols assessing voltage-dependent block (VDB, also termed state-dependent block) are used. VDB of peak current was measured following an 8 s conditioning prepulse (to -55 mV for NaV1.3 and to −60 mV for NaV1.7) followed by a test pulse to 0 mV (20 ms). An interpulse (−120 mV, 10 ms) was used to recover non-drug bound channels from fast inactivation. The prepulse potential was determined by the steady-state inactivation curves for NaV1.3 and NaV1.7. […] Multiple applications of drug were used to ensure complete solution exchange and the cells were allowed to stabilize in the drug containing solution for two minutes. Currents were normalized to the peak current recorded in the absence of drug and expressed as percent inhibition.

Test [3] deals with hNaV1.7 (Homo sapiens, UniProt Q15858). Kind of test: Voltage-dependent block (VDB) of hNaV1.7, QPatch whole-cell voltage-clamp in HEK-293 cells. To be noted: 8 s prepulse to −60 mV; at a given concentration (not given). The class given is cell-based. How it is done: as §1
The cells were continuously maintained in a humidified, 5% CO2 atmosphere at 37° C. in MEM growth medium supplemented with 10% FBS, 2 mM L-glutamine, 100 U/mL penicillin, 100 μg/mL streptomycin, 0.6 mg/mL G418 and 2 μg/mL blastocydin.
as §2, §3, §4

In test [4] the test system is human pancreatic islets. Put plainly: Veratridine-induced glucagon secretion in human pancreatic islets. It is filed as cell-based. The note with it: veratridine 30 μM.
Test [5] deals with rat pancreatic islets. Put plainly: Veratridine-induced glucagon secretion in rat pancreatic islets. The class given is cell-based.
The test system of test [6] is rat pancreatic islets. Kind of test: Glucagon secretion in rat pancreatic islets under low glucose (3 mM), ELISA. It is filed as cell-based. (In an ELISA, binding on a coated surface is turned into a signal by an enzyme label.)
Test [7] concerns ZDF diabetic rats. Kind of test: ZDF diabetic rats, animal model of type 2 diabetes. It is filed as in vivo, rat. Here is the method:
All sections from fluorescent staining were viewed under fluorescent microscope and the stained areas were digitally photographed at a magnification of 20×. The images taken at different magnification were normalized using the standard ruler grade (S1 Finder Graticule, 68040, Electron Microscopy Science, Hatfield, Pa.). Analyses of islet areas and entire section areas were performed using ImageJ software (NIH, MD). Three sections from each of 6 animals per treatment group were analyzed. Data are presented as mean±SEM. *, p<0.05; **, p<0.01; ***, p<0.001 by One-way ANOVA.
Male ZDF Leprfa/Crl rats were received at 5 weeks of age from Charles River Laboratories Inc., (Wilmington, Mass.) and were acclimated until study initiation at 6 weeks of age. Drugs were given to the animals in Purina 5008 for 10 weeks at doses approximately 170 mg/kg/d of ranolazine, 0.6 mg/kg/d of compound A and 30 mg/kg/d of sitagliptin as positive control. Fasting (12-14 h fast) and non-fasting blood samples were obtained by tail-nick and blood glucose was measured using a Freestyle Lite glucose meter (Abbott Laboratories Inc., Abbott Park, Ill.). HbA1c levels were monitored every other week. Twenty four hour water consumption as surrogate marker for diabetes for each rat was measured at least once per week.

Each structure is given as a SMILES string.

Chain of hNaV1.7 (Q15858 1-1977 isoform Q15858-3): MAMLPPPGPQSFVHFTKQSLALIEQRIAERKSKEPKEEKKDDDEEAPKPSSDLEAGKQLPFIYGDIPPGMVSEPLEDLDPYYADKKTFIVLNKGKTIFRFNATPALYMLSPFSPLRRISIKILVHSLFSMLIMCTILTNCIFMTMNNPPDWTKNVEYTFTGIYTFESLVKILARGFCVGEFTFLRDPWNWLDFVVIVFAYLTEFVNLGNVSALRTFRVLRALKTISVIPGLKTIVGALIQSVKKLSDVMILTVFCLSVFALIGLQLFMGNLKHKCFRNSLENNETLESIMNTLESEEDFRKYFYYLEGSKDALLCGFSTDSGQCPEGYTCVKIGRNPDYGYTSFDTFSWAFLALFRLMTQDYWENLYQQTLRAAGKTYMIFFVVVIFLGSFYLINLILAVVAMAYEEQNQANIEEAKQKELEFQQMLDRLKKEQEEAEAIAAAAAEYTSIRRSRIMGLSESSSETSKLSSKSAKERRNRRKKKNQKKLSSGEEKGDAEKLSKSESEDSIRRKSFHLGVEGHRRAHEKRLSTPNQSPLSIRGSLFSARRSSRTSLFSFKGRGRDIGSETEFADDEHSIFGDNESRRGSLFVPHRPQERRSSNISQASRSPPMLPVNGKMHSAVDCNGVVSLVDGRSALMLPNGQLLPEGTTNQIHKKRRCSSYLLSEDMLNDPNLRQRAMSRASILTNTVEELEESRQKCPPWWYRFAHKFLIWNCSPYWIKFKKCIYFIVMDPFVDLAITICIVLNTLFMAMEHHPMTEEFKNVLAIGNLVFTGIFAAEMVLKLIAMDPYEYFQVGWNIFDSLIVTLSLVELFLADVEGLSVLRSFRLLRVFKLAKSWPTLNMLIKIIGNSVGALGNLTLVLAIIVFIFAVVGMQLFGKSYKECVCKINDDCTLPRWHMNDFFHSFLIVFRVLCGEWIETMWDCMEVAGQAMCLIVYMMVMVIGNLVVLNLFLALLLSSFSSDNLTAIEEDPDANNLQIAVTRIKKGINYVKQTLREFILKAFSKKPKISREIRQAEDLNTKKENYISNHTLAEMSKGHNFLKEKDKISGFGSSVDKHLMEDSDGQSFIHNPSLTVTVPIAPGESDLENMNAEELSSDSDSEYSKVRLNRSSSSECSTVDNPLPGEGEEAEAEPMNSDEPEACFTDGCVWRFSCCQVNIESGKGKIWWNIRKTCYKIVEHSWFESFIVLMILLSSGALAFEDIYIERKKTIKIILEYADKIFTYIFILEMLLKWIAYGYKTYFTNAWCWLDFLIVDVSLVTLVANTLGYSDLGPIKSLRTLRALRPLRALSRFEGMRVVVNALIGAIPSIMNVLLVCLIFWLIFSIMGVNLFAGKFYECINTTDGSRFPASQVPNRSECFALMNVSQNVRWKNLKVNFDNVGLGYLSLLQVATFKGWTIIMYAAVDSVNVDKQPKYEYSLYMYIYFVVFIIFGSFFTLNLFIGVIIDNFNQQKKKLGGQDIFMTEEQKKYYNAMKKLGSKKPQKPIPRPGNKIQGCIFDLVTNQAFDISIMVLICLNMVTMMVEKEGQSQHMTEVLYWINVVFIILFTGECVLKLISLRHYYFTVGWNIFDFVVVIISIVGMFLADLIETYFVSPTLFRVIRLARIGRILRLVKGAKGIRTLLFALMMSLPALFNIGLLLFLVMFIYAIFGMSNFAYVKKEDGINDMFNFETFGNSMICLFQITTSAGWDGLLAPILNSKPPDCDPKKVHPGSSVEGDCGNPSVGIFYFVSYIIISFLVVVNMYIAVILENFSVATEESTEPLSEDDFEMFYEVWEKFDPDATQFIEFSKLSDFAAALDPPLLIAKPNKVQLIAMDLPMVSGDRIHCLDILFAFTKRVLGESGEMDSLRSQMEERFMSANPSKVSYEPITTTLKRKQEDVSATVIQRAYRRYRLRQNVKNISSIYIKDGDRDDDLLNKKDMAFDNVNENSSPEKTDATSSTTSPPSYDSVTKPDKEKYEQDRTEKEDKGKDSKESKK
Chain of hNaV1.7 (Q07699 19-218 partner): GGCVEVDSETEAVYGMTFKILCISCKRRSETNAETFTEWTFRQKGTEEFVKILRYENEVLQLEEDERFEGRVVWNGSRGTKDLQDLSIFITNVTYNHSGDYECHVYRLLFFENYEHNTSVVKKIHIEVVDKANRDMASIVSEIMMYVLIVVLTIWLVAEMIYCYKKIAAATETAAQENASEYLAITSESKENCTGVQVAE
T1 sequence (Q9NY46 1-1951 isoform Q9NY46-4): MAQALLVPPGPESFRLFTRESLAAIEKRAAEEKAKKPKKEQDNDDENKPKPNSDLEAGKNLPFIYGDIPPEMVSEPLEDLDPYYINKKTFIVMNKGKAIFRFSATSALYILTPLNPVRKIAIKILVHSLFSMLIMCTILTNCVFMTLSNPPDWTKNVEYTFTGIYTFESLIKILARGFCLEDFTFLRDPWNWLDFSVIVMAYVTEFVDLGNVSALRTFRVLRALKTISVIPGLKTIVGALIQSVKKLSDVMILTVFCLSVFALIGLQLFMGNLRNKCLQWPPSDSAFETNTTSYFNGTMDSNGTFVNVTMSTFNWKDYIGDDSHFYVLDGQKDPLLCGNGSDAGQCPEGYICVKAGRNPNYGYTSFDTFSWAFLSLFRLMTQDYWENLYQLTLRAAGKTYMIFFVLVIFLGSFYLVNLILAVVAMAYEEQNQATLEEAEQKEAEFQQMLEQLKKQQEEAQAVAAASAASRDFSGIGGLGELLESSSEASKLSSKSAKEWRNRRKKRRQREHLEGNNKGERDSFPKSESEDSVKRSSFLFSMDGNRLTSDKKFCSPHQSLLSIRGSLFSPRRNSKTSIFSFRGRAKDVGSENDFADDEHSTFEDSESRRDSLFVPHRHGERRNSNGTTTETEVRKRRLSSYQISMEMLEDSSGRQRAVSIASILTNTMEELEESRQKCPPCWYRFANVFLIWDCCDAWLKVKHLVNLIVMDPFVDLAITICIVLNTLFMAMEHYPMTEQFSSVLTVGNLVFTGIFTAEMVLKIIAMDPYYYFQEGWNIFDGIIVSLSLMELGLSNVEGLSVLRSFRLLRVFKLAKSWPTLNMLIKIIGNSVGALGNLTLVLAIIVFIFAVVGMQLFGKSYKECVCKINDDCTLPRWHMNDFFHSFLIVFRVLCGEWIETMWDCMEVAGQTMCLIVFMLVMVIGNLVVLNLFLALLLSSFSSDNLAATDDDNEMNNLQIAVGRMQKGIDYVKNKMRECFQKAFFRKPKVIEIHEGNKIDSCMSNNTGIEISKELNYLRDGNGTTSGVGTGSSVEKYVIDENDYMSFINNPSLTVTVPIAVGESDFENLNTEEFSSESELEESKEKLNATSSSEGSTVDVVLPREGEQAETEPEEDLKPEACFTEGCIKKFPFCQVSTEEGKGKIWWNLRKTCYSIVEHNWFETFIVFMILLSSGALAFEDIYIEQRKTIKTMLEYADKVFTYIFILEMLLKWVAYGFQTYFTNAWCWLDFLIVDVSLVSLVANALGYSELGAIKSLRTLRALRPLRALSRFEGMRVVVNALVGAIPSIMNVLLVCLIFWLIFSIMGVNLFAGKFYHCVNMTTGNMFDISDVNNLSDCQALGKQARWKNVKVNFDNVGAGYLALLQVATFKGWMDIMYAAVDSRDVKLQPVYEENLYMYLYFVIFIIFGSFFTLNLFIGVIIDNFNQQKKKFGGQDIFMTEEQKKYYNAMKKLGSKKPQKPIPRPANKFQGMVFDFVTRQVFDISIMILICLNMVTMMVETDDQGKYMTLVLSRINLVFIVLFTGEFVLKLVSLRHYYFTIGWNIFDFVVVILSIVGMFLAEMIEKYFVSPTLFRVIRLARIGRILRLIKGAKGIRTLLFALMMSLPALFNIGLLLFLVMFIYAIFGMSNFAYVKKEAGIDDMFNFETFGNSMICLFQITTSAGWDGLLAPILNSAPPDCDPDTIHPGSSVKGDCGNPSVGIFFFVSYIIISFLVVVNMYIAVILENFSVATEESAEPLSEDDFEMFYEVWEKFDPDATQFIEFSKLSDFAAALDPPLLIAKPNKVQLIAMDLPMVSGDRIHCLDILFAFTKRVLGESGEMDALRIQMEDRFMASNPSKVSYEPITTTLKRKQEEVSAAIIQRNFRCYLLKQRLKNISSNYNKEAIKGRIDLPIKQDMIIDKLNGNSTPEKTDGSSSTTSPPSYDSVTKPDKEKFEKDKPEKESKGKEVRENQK
T1 sequence (Q07699 19-218 partner): as the sequence (Q07699 19-218 partner) above
T1 sequence (O60939 30-215 partner): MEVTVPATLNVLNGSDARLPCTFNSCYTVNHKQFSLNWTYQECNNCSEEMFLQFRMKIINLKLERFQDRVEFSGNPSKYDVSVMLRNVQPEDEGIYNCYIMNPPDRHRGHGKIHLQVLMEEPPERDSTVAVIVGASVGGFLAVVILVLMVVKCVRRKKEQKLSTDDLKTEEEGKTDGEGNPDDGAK

Take `CC(C)(C)OC(=O)N[C@H](Cc1ccccc1)C(=O)N[C@@H]1CCc2ccccc2N(CC(F)(F)F)C1` [E, tert-butyl (R)-1-oxo-3-phenyl-1-((R)-1-(2,2,2-trifluoroethyl)-2,3,4,5-tetrahydro-1H-benzo[b]azepin-3-ylamino)propan-2-ylcarbamate]: the “Glucagon Secretion % Inhibition” value in test [1] was determined as 34.53%. Further, the “hNav1.3 VDB % Inhibition” value in test [2] is reported as 23.18%. Besides, the “hNav1.7 VDB % Inhibition” value in test [3] was determined as 23.73%.
For `FC(F)(F)Oc1ccc(-c2ccc3nnc(Oc4ccccc4)n3c2)cc1` [D, 3-phenoxy-6-(4-(trifluoromethoxy)phenyl)-[1,2,4]triazolo[4,3-a]pyridine] the same measures were 33.75%, 49.35% and 89.74%.
In the case of `COc1ccc(C(=O)O[C@H]2CC[C@@]3(C)[C@@H]4CC[C@H]5[C@]6(O)C[C@H](O)[C@@]7(O)[C@@H](CN8C[C@@H](C)CC[C@H]8[C@@]7(C)O)[C@]6(O)C[C@@]53O[C@]24O)cc1OC` [Veratridine], the “increase in glucagon secretion” value was ~9 fold in test [4] and “more than 3 fold” in test [5] (veratridine at 30 μM).
On to `COCC(F)(F)c1nnc2ccc(-c3ccc(Oc4ccc(Cl)cc4)cc3)cn12` [F, 6-(4-(4-chlorophenoxy)phenyl)-3-(1,1-difluoro-2-methoxyethyl)-[1,2,4]triazolo[4,3-a]pyridine], for which the “Glucagon Secretion % Inhibition” value in test [1] came out at 4%. The “hNav1.3 VDB % Inhibition” value in test [2] stood at 2.32%. Besides, in test [3], the “hNav1.7 VDB % Inhibition” value came out at 14.72%.
For the compound `NC1=N[C@H](O)[C@H]2[C@H]3O[C@]4(O)O[C@@H]([C@@H](O)[C@@]2(N1)[C@@H]4O)[C@]3(O)CO` [TTX, tetrodotoxin], the “reduction of veratridine-induced glucagon secretion (in words)” value in test [5] was “concentration-dependently reduced”. Moreover, in test [1], the “reduction of veratridine-induced increase of glucagon secretion” value was found to be 100±6%. The “maximal reduction of glucagon secretion as compared to the vehicle control” value in test [6] is 47±6%.
As for `O=C(NCc1ccc(C(F)(F)F)c(Cl)c1)c1ccc(S(=O)(=O)Nc2ncc(Cl)s2)cc1` [C, N-(3-chloro-4-(trifluoromethyl)benzyl)-4-(N-(5-chlorothiazol-2-yl)sulfamoyl)benzamide], the “Glucagon Secretion % Inhibition” value in test [1] came to 41%. Further, the “hNav1.3 VDB % Inhibition” value in test [2] came to 92.16%. Moreover, in test [3], the “hNav1.7 VDB % Inhibition” value is listed as 7.81%.
For `CS(=O)(=O)Nc1ccc(-c2ccc(Cl)c(C(F)(F)F)c2)c(Cl)c1` [G, N-(2,4′-dichloro-3′-(trifluoromethyl)biphenyl-4-yl)methanesulfonamide], in that order: 3.5%, 4.01% and 6.04%.
`N[C@@H](CC(=O)N1CCn2c(nnc2C(F)(F)F)C1)Cc1cc(F)c(F)cc1F` [sitagliptin]: in test [7] (10 weeks treatment), the “insulin staining per islet” value was determined as 90.0±2.1%, the islet area/pancreas area came out at 0.98±0.3% and the “staining of glucagon per islet versus vehicle” value is reported as “significantly less”. In test [7] (in Purina 5008 diet, during diabetes development), the “water consumption (surrogate marker for diabetes)” value is reported as “significantly prevented the increase”. Further, the “HbA1c levels versus vehicle group” value in test [7] (in Purina 5008 diet, weeks 4, 6 and 8) was “significantly lower”. Also, the “fasting plasma glucose levels versus vehicle” value in test [7] (in Purina 5008 diet, weeks 7 and 9) is recorded as “significantly lower”.
